Molecular target: human PDE10A (Homo sapiens (Human), UniProt Q9Y233)
Experiment: human PDE10A full length assay ([3H]-cGMP SPA)
Format: biochemical
Conditions: human PDE10A full length enzyme, 50 nM cGMP + 50 nM [3H]-cGMP, 20 minutes at room temperature; read-out: PDE10A inhibition IC50
Experimental: The human PDE10A full length assay was performed in 96-well micro titer plates. The reaction mixture of 50 μl contained 20 mM HEPES pH=7.5/10 mM MgCl2/0.05 mg/ml BSA (Sigma cat. #A-7906), 50 nM cGMP (Sigma, cat. #G6129) and 50 nM [3H]-cGMP (GE Healthcare, cat. #TRK392 S.A. 13.2 Ci/mmol), 3.75 ng/well PDE10A enzyme (Enzo Life Science, Lausen, Switzerland cat #SE-534) with or without a specific test compound. A range of concentrations of the potential inhibitor was used to generate data for calculating the concentration of inhibitor resulting in 50% of the effect (e.g. IC50, the concentration of the competitor inhibiting PDE10A activity by 50%). Non-specific activity was tested without the enzyme. The reaction was initiated by the addition of the substrate solution (cGMP and [3H]-cGMP) and allowed to progress for 20 minutes at room temperature. The reaction was terminated by adding 25 μl of YSi-SPA scintillation beads (GE Healthcare, cat. #RPNQ0150) in 18 mM zinc sulphate solution (stop reagent). After 1 h under shaking, the plate was centrifuged one minute at 170 g to allow beads to settle. Afterwards, radioactive counts were measured on a Perkin Elmer TopCount Scintillation plate reader.

Chain of human PDE10A (Q9Y233 other isoform, or with tags, fused parts or gaps): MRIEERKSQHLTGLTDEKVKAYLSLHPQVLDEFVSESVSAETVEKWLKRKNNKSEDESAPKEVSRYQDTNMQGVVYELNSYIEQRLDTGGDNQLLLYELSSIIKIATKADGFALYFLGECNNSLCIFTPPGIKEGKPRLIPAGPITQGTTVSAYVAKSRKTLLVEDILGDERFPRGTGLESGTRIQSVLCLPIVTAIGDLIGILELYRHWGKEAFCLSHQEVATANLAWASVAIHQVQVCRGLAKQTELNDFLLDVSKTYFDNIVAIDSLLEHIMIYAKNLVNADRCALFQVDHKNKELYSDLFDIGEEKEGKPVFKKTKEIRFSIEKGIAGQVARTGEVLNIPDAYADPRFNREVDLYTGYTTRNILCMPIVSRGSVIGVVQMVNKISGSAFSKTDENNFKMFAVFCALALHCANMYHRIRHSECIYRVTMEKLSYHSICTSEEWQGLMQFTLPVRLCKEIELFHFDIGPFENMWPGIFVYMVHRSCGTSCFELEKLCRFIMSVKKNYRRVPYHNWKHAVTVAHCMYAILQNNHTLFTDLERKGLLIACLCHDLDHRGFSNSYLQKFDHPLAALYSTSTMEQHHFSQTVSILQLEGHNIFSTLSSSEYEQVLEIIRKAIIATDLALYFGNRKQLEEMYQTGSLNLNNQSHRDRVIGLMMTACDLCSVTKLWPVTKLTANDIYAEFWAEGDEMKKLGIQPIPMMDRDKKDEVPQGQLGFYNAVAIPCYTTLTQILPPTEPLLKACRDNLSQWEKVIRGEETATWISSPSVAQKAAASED

| Compound | IC50 |
| --- | --- |
| Cc1c(C(F)(F)F)nc2ccc(CCc3nc(N4CCCC4)nn3C)nn12 [Example 1, 3-Methyl-6-(2-(1-methyl-3-(pyrrolidin-1-yl)-1H-1,2,4-triazol-5-yl)ethyl)-2-(trifluoro-methyl)imidazo[1,2-b]pyridazine] | 12 nM |
| Cc1nc2ccc(CCc3nc(N4CCCC4)nn3C)nn2c1C [Example 2, 2,3-Dimethyl-6-(2-(1-methyl-3-(pyrrolidin-1-yl)-1H-1,2,4-triazol-5-yl)ethyl)-imidazo[1,2-b]pyridazine] | 11 nM |
| Cc1c(C#N)nc2ccc(/C=C/c3nc(N4CCCC4)nn3C)nn12 [Example 3, 3-Methyl-6-[(E)-2-(2-methyl-5-pyrrolidin-1-yl-2H-[1,2,4]triazol-3-yl)vinyl]-imidazo[1,2-b]pyridazine-2-carbonitrile] | 5 nM |
| Cc1c(C#N)nc2ccc(CCc3nc(N4CCCC4)nn3C)nn12 [Example 5, 3-Methyl-6-[2-(2-methyl-5-pyrrolidin-1-yl-2H-[1,2,4]triazol-3-yl)-ethyl]-imidazo[1,2-b]pyridazine-2-carbonitrile] | 21 nM |
| Cc1c(C(F)(F)F)nc2ccc(CCc3nc(N4CCCC4)n(C)n3)nn12 [Example 6, 3-Methyl-6-(2-(1-methyl-5-(pyrrolidin-1-yl)-1H-1,2,4-triazol-3-yl)ethyl)-2-(trifluoromethyl)imidazo[1,2-b]pyridazine] | 19 nM |
| Cc1c(C(F)F)nc2ccc(C#Cc3nc(N4CCCC4)nn3C)nn12 [Example 7, 2-(Difluoromethyl)-3-methyl-6-((1-methyl-3-(pyrrolidin-1-yl)-1H-1,2,4-triazol-5-yl)ethynyl)imidazo[1,2-b]pyridazine] | 5 nM |
| Cc1c(C(F)F)nc2ccc(CCc3nc(N4CCCC4)nn3C)nn12 [Example 8, 2-(Difluoromethyl)-3-methyl-6-(2-(1-methyl-3-(pyrrolidin-1-yl)-1H-1,2,4-triazol-5-yl)ethyl)imidazo[1,2-b]pyridazine] | 8 nM |
| Cc1nc2c(O)nc(CCc3nc(N4CCCC4)nn3C)nn2c1C [Example 11, 6,7-Dimethyl-2-(2-(1-methyl-3-(pyrrolidin-1-yl)-1H-1,2,4-triazol-5-yl)ethyl)imidazo[1,2-f][1,2,4]triazin-4-ol] | 225 nM |
| Cn1nc(N2CCCC2)nc1CCc1ccc2nc3c(n2n1)CCC3 [Example 14, 5-[2-(2-Methyl-5-pyrrolidin-1-yl-2H-[1,2,4]triazol-3-yl)-ethyl]-2,3-dihydro-1H-3b,4,8-triaza-cyclopenta[a]indene] | 41 nM |
| Cc1cc2nc(C)c(C)n2nc1CCc1nc(N2CCCC2)nn1C [Example 18, 2,3,7-Trimethyl-6-(2-(1-methyl-3-(pyrrolidin-1-yl)-1H-1,2,4-triazol-5-yl)ethyl)imidazo[1,2-b]pyridazine] | 195 nM |
| Cc1nc2c(N3CCCC3)cc(CCc3nc(N4CCCC4)nn3C)nn2c1C [Example 19, 2,3-Dimethyl-6-(2-(1-methyl-3-(pyrrolidin-1-yl)-1H-1,2,4-triazol-5-yl)ethyl)-8-(pyrro-lidin-1-yl)imidazo[1,2-b]pyridazine] | 5 nM |
| Cc1nc2c(Cl)nc(CCc3nc(N4CCCC4)n(C)n3)nn2c1C [Example 20, 4-Chloro-6,7-dimethyl-2-(2-(1-methyl-5-(pyrrolidin-1-yl)-1H-1,2,4-triazol-3-yl)ethyl)-imidazo[1,2-f][1,2,4]triazine] | 11 nM |
| Cc1nc2ccc(CCc3nc(N4CCCC4)nn3C)nn2c1CO [Example 21, (2-Methyl-6-(2-(1-methyl-3-(pyrrolidin-1-yl)-1H-1,2,4-triazol-5-yl)ethyl)imidazo[1,2-b]-pyridazin-3-yl)methanol] | 194 nM |
| Cc1c(C(F)(F)F)nc2ccc(OCc3nc(N4CCCC4)nn3C)nn12 [Example 23, 3-Methyl-6-((1-methyl-3-(pyrrolidin-1-yl)-1H-1,2,4-triazol-5-yl)methoxy)-2-(trifluoro-methyl)imidazo[1,2-b]pyridazine] | 290 nM |
| Cc1nc2c3c(c(CCc4nc(N5CCCC5)nn4C)nn2c1C)CCCC3 [Example 24, 2,3-Dimethyl-6-(2-(1-methyl-3-(pyrrolidin-1-yl)-1H-1,2,4-triazol-5-yl)ethyl)-7,8,9,10-tetrahydroimidazo[2,1-a]phthalazine] | 6 nM |
| Cc1nc2ccc(SCc3nc(N4CCCC4)nn3C)nn2c1C [Example 28, 2,3-Dimethyl-6-((1-methyl-3-(pyrrolidin-1-yl)-1H-1,2,4-triazol-5-yl)methylthio)-imidazo[1,2-b]pyridazine] | 568 nM |
| Cc1nc2c(S(C)(=O)=O)cc(C#Cc3nc(N4CCCC4)nn3C)nn2c1C [Example 29, 2,3-Dimethyl-6-((1-methyl-3-(pyrrolidin-1-yl)-1H-1,2,4-triazol-5-yl)ethynyl)-8-(methylsulfonyl)imidazo[1,2-b]pyridazine] | 5 nM |
| Cc1nc2ccc(OCc3nc(N4CCCC4)nn3C)nn2c1C [Example 30, 2,3-Dimethyl-6-((1-methyl-3-(pyrrolidin-1-yl)-1H-1,2,4-triazol-5-yl)methoxy)imidazo[1,2-b]pyridazine] | 98 nM |
| Cc1nc2c(S(C)(=O)=O)cc(CCc3nc(N4CCCC4)nn3C)nn2c1C [Example 33, 2,3-Dimethyl-6-(2-(1-methyl-3-(pyrrolidin-1-yl)-1H-1,2,4-triazol-5-yl)ethyl)-8-(methyl-sulfonyl)imidazo[1,2-b]pyridazine] | 41 nM |

These reach a lower IC50. Values come first.

| IC50 | Compound |
| --- | --- |
| 4 nM | Cc1c(C(F)(F)F)nc2ccc(C#Cc3nc(N4CCCC4)n(C)n3)nn12 [Example 4, 3-Methyl-6-((1-methyl-5-(pyrrolidin-1-yl)-1H-1,2,4-triazol-3-yl)ethynyl)-2-(trifluoromethyl)imidazo[1,2-b]pyridazine] |
| 1 nM | COc1cc(/C=C/c2nc(N3CCCC3)nn2C)nn2c(C)c(C(F)(F)F)nc12 [Example 9, (E)-8-methoxy-3-methyl-6-(2-(1-methyl-3-(pyrrolidin-1-yl)-1H-1,2,4-triazol-5-yl)vinyl)-2-(trifluoromethyl)imidazo[1,2-b]pyridazine] |
| 2 nM | COc1cc(CCc2nc(N3CCCC3)nn2C)nn2c(C)c(C(F)(F)F)nc12 [Example 10, 8-Methoxy-3-methyl-6-(2-(1-methyl-3-(pyrrolidin-1-yl)-1H-1,2,4-triazol-5-yl)ethyl)-2-(trifluoromethyl)imidazo[1,2-b]pyridazine] |
| 3 nM | COc1cc(CCc2nc(N3CCCC3)nn2C)nn2c(C)c(C)nc12 [Example 12, 8-Methoxy-2,3-dimethyl-6-(2-(1-methyl-3-(pyrrolidin-1-yl)-1H-1,2,4-triazol-5-yl)ethyl)imidazo[1,2-b]pyridazine] |
| 2 nM | COc1nc(CCc2nc(N3CCCC3)nn2C)nn2c(C)c(C)nc12 [Example 13, 4-Methoxy-6,7-dimethyl-2-(2-(1-methyl-3-(pyrrolidin-1-yl)-1H-1,2,4-triazol-5-yl)ethyl)imidazo[1,2-f][1,2,4]triazine] |
| 4 nM | Cc1nc2c(Cl)nc(CCc3nc(N4CCCC4)nn3C)nn2c1C [Example 15, 4-Chloro-6,7-dimethyl-2-(2-(1-methyl-3-(pyrrolidin-1-yl)-1H-1,2,4-triazol-5-yl)ethyl)imidazo[1,2-f][1,2,4]triazine] |
| 2 nM | Cc1nc2c(C)cc(CCc3nc(N4CCCC4)nn3C)nn2c1C [Example 16, 2,3,8-trimethyl-6-(2-(1-methyl-3-(pyrrolidin-1-yl)-1H-1,2,4-triazol-5-yl)ethyl)-imidazo[1,2-b]pyridazine] |
| 1 nM | Cc1cc2nc(C)c(C)n2nc1C#Cc1nc(N2CCCC2)nn1C [Example 17, 2,3,7-Trimethyl-6-((1-methyl-3-(pyrrolidin-1-yl)-1H-1,2,4-triazol-5-yl)ethynyl)imidazo[1,2-b]pyridazine] |
| 2 nM | Cc1nc2c(N(C)C)nc(CCc3nc(N4CCCC4)nn3C)nn2c1C [Example 22, N,N,6,7-Tetramethyl-2-(2-(1-methyl-3-(pyrrolidin-1-yl)-1H-1,2,4-triazol-5-yl)ethyl)-imidazo[1,2-f][1,2,4]triazin-4-amine] |
| 1 nM | Cc1nc2c(OC(C)C)cc(C#Cc3nc(N4CCCC4)nn3C)nn2c1C [Example 25, 8-Isopropoxy-2,3-dimethyl-6-((1-methyl-3-(pyrrolidin-1-yl)-1H-1,2,4-triazol-5-yl)ethynyl)imidazo[1,2-b]pyridazine] |
| 0.493 nM | Cc1nc2c(OC(C)C)cc(/C=C/c3nc(N4CCCC4)nn3C)nn2c1C [Example 26, (E)-8-Isopropoxy-2,3-dimethyl-6-(2-(1-methyl-3-(pyrrolidin-1-yl)-1H-1,2,4-triazol-5-yl)vinyl)imidazo[1,2-b]pyridazine] |
| 3 nM | Cc1nc2c(OC(C)C)cc(CCc3nc(N4CCCC4)nn3C)nn2c1C [Example 27, 8-Isopropoxy-2,3-dimethyl-6-(2-(1-methyl-3-(pyrrolidin-1-yl)-1H-1,2,4-triazol-5-yl)ethyl)imidazo[1,2-b]pyridazine] |
| 3 nM | Cc1nc2c(NC(C)C)nc(CCc3nc(N4CCCC4)nn3C)nn2c1C [Example 31, N-Isopropyl-6,7-dimethyl-2-(2-(1-methyl-3-(pyrrolidin-1-yl)-1H-1,2,4-triazol-5-yl)ethyl)imidazo[1,2-f][1,2,4]triazin-4-amine] |

— patent US9617271B2, “Triazolo compounds” (Hoffmann-La Roche Inc., priority 2012, dated 2017)
